Experimental data: patent publication US20030055007A1, “Antimicrobial agents” (priority 2001, published 2003)
Values after ≈ are worked out from the molar mass of the structure shown. Like-named read-outs stand apart in the source and are kept apart here.

How the values were obtained:
[1] = test system: AIDS virus (HIV-1, HIV-2); experiment: Complete inhibitory activity against AIDS virus, MT-4 cells, 12-well microplate, 3- and 6-day culture; assay type: cell-based; conditions: for lowest sample concentration (circle-marked well) at which AIDS virus growth was inhibited completely (100%): MT-4 cells, 2-fold dilutions from 1000 μg/ml
MT-4 cells [2] = experiment: Cell damage caused by the sample in the AIDS virus microplate test; conditions: for cell damage / cytotoxicity (in words): AIDS virus test
[3] = test system: Influenza virus A/Hokkaidou/1/97 (H3N2); experiment: organism not typed; assay type: cell-based; conditions: for MIC: read-out: Minimum inhibitory concentration (MIC)
[4] = test system: Influenza virus B/Hokkaidou/1/97; experiment: microbe, parasite or virus in culture; assay type: cell-based; conditions: for MIC: unidentified influenza virus, read-out: Minimum inhibitory concentration (MIC)
[5] = test system: Influenza virus A/Hokkaidou/1/96 (H1N1); experiment: organism not typed; assay type: cell-based; conditions: for MIC: read-out: Minimum inhibitory concentration (MIC)
[6] = test system: influenza virus (H1N1, H3N2, Type B); assay type: cell-based
[7] = oral; cited from earlier work
influenza virus = conditions: in vivo, po
MT-4 cells [8] = test system: MT-4 cells
P. aerginos = experiment: Antibacterial activity test (2), dilution on agar culture medium; assay type: cell-based; conditions: 30° C., 17 hours, 1:40 = 2 mg/ml, <40-fold = no complete inhibition at 1:40
E. coli O157 = assay type: cell-based; conditions: 30° C., 17 hours, 1:40 = 2 mg/ml, <40-fold = no complete inhibition at 1:40
B. subtilis = experiment: Antibacterial activity test (2), dilution on agar culture medium; assay type: cell-based; conditions: 30° C., 17 hours, 1:40 = 2 mg/ml, <40-fold = no complete inhibition at 1:40
S. aureus = experiment: as above; assay type: cell-based; conditions: 30° C., 17 hours, 1:40 = 2 mg/ml, <40-fold = no complete inhibition at 1:40
Experimental: Aqueous solutions of each specimen (powders) at a concentration of 8% was diluted 1:40 as the specimen stock solution for MIC measurement. The stock solution diluted at a graduation ratio of 1:40 to 1:400 and the stock solution were added to the agar culture medium on which 6 test […] were inoculated, and incubated at 30° C. for 17 hours. Growth inhibition bands were examined on the agar culture medium. The specimen stock solution was prepared by diluting 25 ml of 8% solution with 1000 cc of distilled water(1:40 dilution), which is converted into the amount per 2 mg/ml by solid content.
However, the remaining samples that were indicative of “<40-fold (lower than the 1:40 dilution)” were proven to have a certain degree of inhibitory effects. They are expected to show the complete inhibitory effects against the bacterial growth, by increasing the concentration level. As a consequence, the samples, 5, 6, 11-14 were recognized to have sufficient useful antibacterial activity.

S. Enteritidis = experiment: as above; assay type: cell-based; conditions: 30° C., 17 hours, 1:40 = 2 mg/ml, <40-fold = no complete inhibition at 1:40
K. pneumoniae = experiment: as above; assay type: cell-based; conditions: 30° C., 17 hours, 1:40 = 2 mg/ml, <40-fold = no complete inhibition at 1:40
[9] = H3N2, stock 10 mg/ml, read when virus multiplied to 100 TCID (3-4 days)
[10] = H1N1, stock 10 mg/ml, read when virus multiplied to 100 TCID (3-4 days)
[11] = H1N1, liquid samples, stock 10 μl/ml guaiacol, 2 μl/ml 2,6-dimethoxyphenol

## COc1cc(S(=O)(=O)[O-])ccc1O.COc1cc(S(=O)(=O)[O-])ccc1O.O.[K+].[K+] [guaiacol-4-sulfonate potassium salt 0.5-hydrate, reference compound]
[1]; cell-level test
  anti-AIDS virus activity (in words): not to possess effective anti-AIDS virus activity
MT-4 cells [2]
  cell damage / cytotoxicity (in words): caused cell damage

## COc1cc(O)cc(OC)c1 [sample 4, 3,5-dimethoxyphenol]
[3]; [9]
  MIC: 1900 µg/mL (≈ 12.3 mM)
[1]; 3-day culture
  lowest sample concentration (circle-marked well) at which AIDS virus growth was inhibited completely (100%): ◯ (125) μg/ml
[1]; 6-day culture
  lowest sample concentration (circle-marked well) at which AIDS virus growth was inhibited completely (100%): ◯ (125) μg/ml
[1]; 6-day culture, listed as 3,5-dimethoxyphenol
  lowest sample concentration (circle-marked well) at which AIDS virus growth was inhibited completely (100%): 125 µg/mL
MT-4 cells [2]; 6-day incubation, well number
  well up to which cell damage was observed: 3 (250)
MT-4 cells [2]; ratio of 1:1, anti-viral effect not reduced
  cell damage when 3,4-dimethoxyphenol was added to the sample: only in the first well
[4]; Type B, stock 10 mg/ml, read when virus multiplied to 100 TCID (3-4 days)
  MIC: 3800 µg/mL (≈ 24.6 mM)
[5]; [10]
  MIC: 5000 µg/mL (≈ 32.4 mM)

## COc1cccc(OC)c1O [sample 3, 2,6-dimethoxyphenol]
[1]; 3-day culture
  lowest sample concentration (circle-marked well) at which AIDS virus growth was inhibited completely (100%): ◯ (31.3) μg/ml
[1]; 6-day culture
  lowest sample concentration (circle-marked well) at which AIDS virus growth was inhibited completely (100%): ◯ (31.3) μg/ml
[6]
  effect against influenza virus (in words): not effective
[5]; [11]
  Minimum inhibitory concentration (MIC): > 1.0 μl/ml

## COc1ccccc1O [sample 1, Guaiacol]
[3]; H3N2, liquid samples, stock 10 μl/ml guaiacol, 2 μl/ml 2,6-dimethoxyphenol
  Minimum inhibitory concentration (MIC): 1.9 μl/ml
[1]; 3-day culture
  lowest sample concentration (circle-marked well) at which AIDS virus growth was inhibited completely (100%): ◯ (31.3) μg/ml
[1]; 3-day culture, listed as guaiacol
  lowest sample concentration (circle-marked well) at which AIDS virus growth was inhibited completely (100%): 31.3 µg/mL
[1]; 6-day culture
  lowest sample concentration (circle-marked well) at which AIDS virus growth was inhibited completely (100%): ◯ (125) μg/ml
[1]; 6-day culture, listed as guaiacol
  lowest sample concentration (circle-marked well) at which AIDS virus growth was inhibited completely (100%): 125 µg/mL
[7]
  toxicity level in a human (ORL-HMN): 43 mg/kg
MT-4 cells [2]; 3-day incubation
  concentration up to which cell damage was observed: 250 µg/mL
MT-4 cells [2]; 6-day incubation
  concentration up to which cell damage was observed: 250 µg/mL
[4]; Type B, liquid samples, stock 10 μl/ml guaiacol, 2 μl/ml 2,6-dimethoxyphenol
  Minimum inhibitory concentration (MIC): 3.8 μl/ml
[5]; [11]
  Minimum inhibitory concentration (MIC): 3.8 μl/ml

## Lignosulfonic acid sodium salt acetate [sample 6]
MDCK cells
  cell damage: not seen
Influenza virus
  side effects: not seen

## Lignosulfonic acid sodium salt [sample 5]
MDCK cells
  cell damage: not seen

## COc1cc(C(O)C(CO)Oc2c(OC)cccc2OC)cc(OC)c1O (stereo not drawn) [SOS, syringylglycerol-β-syringyl ether, reference compound]
[1]; 3rd day of culture
  viral (inhibitory) activity against AIDS virus: 15.6 μl/ml
MT-4 cells [8]
  cell damage: 31.3 μl/ml

## COc1cc(C=O)cc(OC)c1O [sample 13, Syringaldehyde]
[3]
  MIC: 1900 µg/mL (≈ 10.4 mM)
[1]; 6-day culture
  lowest sample concentration (circle-marked well) at which AIDS virus growth was inhibited completely (100%): 3.91 µg/mL
P. aerginos
  dilution of 8% solution giving complete growth inhibition: <40-fold
E. coli O157
  dilution of 8% solution giving complete growth inhibition: <40-fold
B. subtilis
  dilution of 8% solution giving complete growth inhibition: <40-fold
MT-4 cells [2]
  cell damage / cytotoxicity (in words): severe cell damage
[4]
  MIC: 3800 µg/mL (≈ 20.9 mM)
S. aureus
  dilution of 8% solution giving complete growth inhibition: <40-fold
[5]
  MIC: 3800 µg/mL (≈ 20.9 mM)
S. Enteritidis
  dilution of 8% solution giving complete growth inhibition: <40 fold
K. pneumoniae
  dilution of 8% solution giving complete growth inhibition: <40-fold

## COc1cc(C(O)C(CO)Oc2ccccc2OC)ccc1OCc1ccccc1 (stereo not drawn) [sample 12, 4-benzyloxyguaiacylglycerol-β-guaiacylether]
[3]; [9]
  Minimum inhibitory concentration (MIC): 2.5 mg/mL (≈ 6.09 mM)
[1]; 6th day of culture
  viral (inhibitory) activity against AIDS virus: 125 μl/ml
P. aerginos
  dilution of 8% solution giving complete growth inhibition: <40-fold
E. coli O157
  dilution of 8% solution giving complete growth inhibition: <40-fold
B. subtilis
  dilution of 8% solution giving complete growth inhibition: <40-fold
[4]
  Minimum inhibitory concentration (MIC): 2.5 mg/mL (≈ 6.09 mM)
S. aureus
  dilution of 8% solution giving complete growth inhibition: <40-fold
[5]; [10]
  Minimum inhibitory concentration (MIC): 8.0 mg/mL (≈ 19.5 mM)
S. Enteritidis
  dilution of 8% solution giving complete growth inhibition: <40-fold
K. pneumoniae
  dilution of 8% solution giving complete growth inhibition: <40-fold
